No end group written: not given here.
Legend:
[1] = tested on: adhesion of ciliary neurons to pET-RK36 s-laminin fragment; conditions: for Inhibition of neuronal adhesion to pET-RK36 / s-laminin (in words): concentration not given
ciliary ganglion neurons = experiment: Cell attachment assay on immobilized substrata, ciliary ganglion neurons; type: cell-based, chick
Description: (§1) Substrates were immobilized to tissue culture dishes as described by Lagenaur and Lemmon, Proc. Natl. Acad. Sci. USA 84, 7753-7757 (1987). Briefly, nitrocellulose (BA85; Schleicher and Schuell, Keene, N.H.) was dissolved in methanol (1 cm^2 /ml), applied to tissue culture wells (90 µl per 16 mm diameter well) and allowed to dry. Drops (1.5-3 μl) of substrates in solution were applied and allowed to bind for 20 min. after which the drops were aspirated. Nonspecific binding sites on the nitrocellulose were then blocked by incubating wells with the following series of solutions: 10 mg/ml bovine serum albumin (BSA; Sigma) in PBS for ~1 min; 30 mg/ml BSA in PBS for 2-3 hr; Earles' Minimum Essential Medium (MEM) containing 2% fetal bovine serum and 25 mM HEPES, pH 7.4, for 5 min; PBS, twice briefly; and Earles' MEM containing 1 mg/ml BSA and 25 mM HEPES, pH 7.4, for 30 min at 37° C. in a humidified chamber containing 7% CO2. At this point, neurons were added, with or without synthetic peptides, and incubated for 2 hr at 37° C. Finally, the wells were washed twice with PBS pre-warmed to 37° and adherent cells were fixed in place with 2% paraformaldehyde and 2% glutaraldehyde in PBS.
Neurons were dissociated from chick ciliary ganglia as previously described by Nishi and Berg, Proc. Natl. Acad. Sci. USA 74, 5171-5175 (1977);
Covault et al., J. Cell Biol. 105, 2479-2488 (1987). Each well received ~5000 neurons, which corresponds to ~1 E8 ganglia, ~1.5 E10 ganglia, and ~2 E13 ganglia (E8, E10 and E13 are stages of development of the embryonic chick) [neuronal death is occurring over this time course; Landmessen and Pilar, J. Physiol. 241, 715-736 (1974)]. Chick dorsal root ganglia and optic tecta were dissociated in the same manner; each well received cells from 4-5 dorsal root ganglia or 0.25 optic tecta. For B35 and B104 cell lines, each well received 20,000 cells. For PC12 cells, each well received 5000 cells. In some tests, PC12 cells were grown with 50 ng/ml nerve growth factor (NGF) for 3-6 days before use. All cells were suspended in Earles' MEM containing 1 mg/ml BSA and 25 mM HEPES, pH 7.4, for addition to tissue culture wells.
Cell attachment assays were performed as described hereinbefore.

[2] = tested on: neurons and neuron-like cells; experiment: Cell attachment assay, each cell type of Table 1; type: cell-based; conditions: for each cell type, Table 1 footnote
Description: as §1
Covault et al., J. Cell Biol. 105, 2479-2488 (1987). […]

tectal neurons = experiment: Cell attachment assay on immobilized substrata, tectal neurons; type: cell-based, chick; conditions: 2 hr
Description: as §1, with “Finally, the wells were washed twice with PBS pre-warmed to 37° and adherent cells were fixed in place with 2% paraformaldehyde and 2% glutaraldehyde in PBS.” left out
(§2) Ciliary neurons were selected for initial tests because many of these neurons normally form neuromuscular junctions on striated muscle fibers in vivo [Pilar et al., J. Neurophys. […] To extend these tests, it was determined whether neurons of other types also adhered to the s-laminin fragments. […]

[3] = tested on: dorsal root ganglion neurons; experiment: Cell attachment assay on immobilized substrata, dorsal root ganglion neurons; type: cell-based, chick; conditions: sensory neurons (cell type implied by context)
Description: as §1, with “Finally, the wells were washed twice with PBS pre-warmed to 37° and adherent cells were fixed in place with 2% paraformaldehyde and 2% glutaraldehyde in PBS.” left out
as §2

For AEKQLREQVGD [Peptide M51], the IC50 [1] was 10 to 20 µM and the “IC50 for inhibition of neuronal adhesion to pET-RK36” value [1] was ~ 20 μg/ml.

With β-galactosidase: pure β-galactosidase the “Attachment of ciliary neurons to recombinant proteins / bacterial extracts (FIG. 2)” value (ciliary ganglion neurons; control for vector-encoded sequences) was “no significant attachment”.

LREQVG [Peptide M513] was tested, and the “Inhibition of neuronal adhesion to pET-RK36 / s-laminin (in words)” value [1] was “inhibitory”.

laminin was tested, and the “Cells applied that adhered to laminin” value [2] was 20, the “Adhesion of tectal cells to substrate (FIG. 3)” value (tectal neurons) was “adhere well” and the “Applied ciliary neurons adhered” value (ciliary ganglion neurons; 2 hour assay, optimal concentration of substrate on nitrocellulose) was 30-40%. The “Adhesion of ciliary neurons to substrate (FIG. 3)” value (ciliary ganglion neurons; 2 hr, laminin 100 μg/ml, pET-RK36 10 μg/ml) was “adhere well”, the “Optimal concentration in molar terms” value (ciliary ganglion neurons; Mr ~900,000 laminin, ~20,000 s-laminin fragment) was ~ 0.5 μM and the “Concentration of applied solution giving maximal adhesion” value (ciliary ganglion neurons; ciliary neurons) was ~ 500 μg/ml. For the same substance, the “Lowest concentration in solution with significant adhesion” value (ciliary ganglion neurons; ciliary neurons) was 20 µg/mL and the “Fold more cells adhered to laminin than to s-laminin” value [3] was “at least 10 fold”.

poly-lysine was tested, and the “More neurons adhered to poly-lysine than to either laminin or s-laminin” value (ciliary ganglion neurons; ciliary neurons, each stage E8-E13) was 30-50%.

AEKQLR [Peptide M511] was tested, and the “Inhibition of neuronal adhesion to pET-RK36 / s-laminin (in words)” value [1] was “inhibiting activity is not shown”.

AEKQLREQVGDQYQTVRALAE [Peptide M5] was tested, and the IC50 [1] was 10 to 20 µM.

For KQLREQ [Peptide M512], the “Inhibition of neuronal adhesion to pET-RK36 / s-laminin (in words)” value [1] was “inhibitory”.
